Our source for the IC50 values is patent US6265437A, “Aminoalkanesulphonic acid derivatives, their preparation and their use as medicaments” (LIPHA, priority 2000, dated 2001).

The assay is described as follows: displacement of tritiated calcium acetylhomotaurinate from a preparation of rat brain section. It is filed as binding. Conditions: in vitro, displacement of titiated calcium acetylhomotaurinate. The source says: In in vitro tests, it has furthermore been shown that these compounds have the ability to displace titiated calcium acetylhomotaurinate from a preparation of rat brain section.

Each structure is given as a SMILES string.

Take `CC(=O)NC(C)CCS(=O)(=O)O` (centres unmarked) [Example 17, calcium 3-(acetylamino)-3-methylpropanesulphonate]: the IC50 was 93 µM. Next, `CC(C)CC(=O)NCCCS(=O)(=O)O` [Example 14, magnesium 3-(3-(methyl)butanoylamino)propanesulphonate]: 42 µM; `CC(C)C(=O)NCCCS(=O)(=O)O` [Example 3, magnesium 3-(2-(methyl)propanoylamino)propanesulphonate]: 28.9 µM. Next, `CC(C)(C)C(=O)NCCCS(=O)(=O)O` [Example 15, magnesium 3-(2,2-(dimethyl)propanoylamino)propanesulphonate]: 49.5 µM.

`CC(C)(C)C(=O)NCCCS(=O)(=O)O` [Example 1, calcium 3-(2-2-(dimethyl)propanoylamino)propanesulphonate]: the IC50 came out at 46.9 µM.

What is called IC50 is the concentration at which inhibition is half-maximal.
